Test results published in PubChem BioAssay AID256 (DTP/NCI, 2004).
Several values for one entry are separate records, joined by “and”; a condition that tells them apart may be missing. Equal entries are not always repeated. Toxic doses and inconclusive results are not listed. How the source made its calls: active means survival T/C of 150% or more; inactive means T/C below 125% in these data.

System: CD2F1 mice, L1210 leukemia ip, survival T/C
Experiment: NCI In Vivo Anticancer Drug Screen. Data for tumor model L1210 Leukemia (intraperitoneal) in CD2F1 (CDF1) mice
Details: higher = longer survival
Outline: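 Each value reflects a quotient of treated over vehicle control outcomes in mice with a transplanted tumor.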

[1] = endpoint: mean survival time, dose: 100.0 mg/kg/injection, schedule: Q01DX009 (ip), vehicle: saline with Tween-80
[2] = endpoint: mean survival time, dose: 200.0 mg/kg/injection, schedule: Q01DX009 (ip), vehicle: saline with Tween-80
[3] = endpoint: mean survival time, dose: 400.0 mg/kg/injection, schedule: Q01DX009 (ip), vehicle: saline with Tween-80
[4] = endpoint: mean survival time, dose: 100.0 mg/kg/injection, schedule: Q01DX001 (ip), vehicle: saline sonified
[5] = endpoint: mean survival time, dose: 200.0 mg/kg/injection, schedule: Q01DX001 (ip), vehicle: saline sonified
[6] = endpoint: mean survival time, dose: 400.0 mg/kg/injection, schedule: Q01DX001 (ip), vehicle: saline sonified
[7] = endpoint: mean survival time, dose: 100.0 mg/kg/injection, schedule: Q04DX003 (ip), vehicle: saline with Tween-80
[8] = endpoint: mean survival time, dose: 200.0 mg/kg/injection, schedule: Q04DX003 (ip), vehicle: saline with Tween-80
[9] = endpoint: mean survival time, dose: 400.0 mg/kg/injection, schedule: Q04DX003 (ip), vehicle: saline with Tween-80

Measured: T/C

CO[C@@]12[C@@H]3N[C@@H]3CN1C1=C(C(=O)C(Nc3ccc(O)cc3C)=C(C)C1=O)[C@@H]2COC(N)=O
inactive: endpoint: mean survival time, dose: 1.5 mg/kg/injection, schedule: Q01DX001 (ip), vehicle: water 119 % of control and 111 % of control | endpoint: mean survival time, dose: 3.0 mg/kg/injection, schedule: Q01DX001 (ip), vehicle: water 122 % of control and 111 % of control | endpoint: mean survival time, dose: 6.0 mg/kg/injection, schedule: Q01DX001 (ip), vehicle: water 120 % of control and 122 % of control | endpoint: mean survival time, dose: 12.0 mg/kg/injection, schedule: Q01DX001 (ip), vehicle: water 120 % of control

C[N+]1=C2CCCC2=C(N)CC1
inactive: endpoint: mean survival time, dose: 6.25 mg/kg/injection, schedule: Q01DX009 (ip), vehicle: saline 105 % of control | endpoint: mean survival time, dose: 12.5 mg/kg/injection, schedule: Q01DX009 (ip), vehicle: saline 100 % of control | endpoint: mean survival time, dose: 25.0 mg/kg/injection, schedule: Q01DX009 (ip), vehicle: saline 98 % of control

CC(C)OC(=O)Nc1ccc(F)cc1
inactive: endpoint: mean survival time, dose: 100.0 mg/kg/injection, schedule: Q01DX009 (ip), vehicle: other 94 % of control | endpoint: mean survival time, dose: 200.0 mg/kg/injection, schedule: Q01DX009 (ip), vehicle: other 91 % of control | endpoint: mean survival time, dose: 400.0 mg/kg/injection, schedule: Q01DX009 (ip), vehicle: other 100 % of control

CCO/C=C1\SC(=S)N(Cc2ccccc2)C1=O
inactive: endpoint: mean survival time, dose: 25.0 mg/kg/injection, schedule: Q01DX009 (ip), vehicle: other 105 % of control | endpoint: mean survival time, dose: 50.0 mg/kg/injection, schedule: Q01DX009 (ip), vehicle: other 115 % of control | [1] 89 % of control

O=C1C=C(c2ccccc2)C(c2ccccc2)C(c2ccccc2)C1 (stereo not drawn)
inactive: [1] 93 % of control | [2] 93 % of control | [3] 96 % of control

COC(=O)c1ccc(OCc2ccccc2)c([N+](=O)[O-])c1
inactive: [4] 98 % of control | [1] 105 % of control | [5] 96 % of control | [2] 97 % of control | [6] 95 % of control | [3] 105 % of control

O=[N+]([O-])c1ccc(C(O)(c2ccc([N+](=O)[O-])cc2)c2ccc([N+](=O)[O-])cc2)cc1
inactive: [1] 96 % of control | [7] 98 % of control | [2] 95 % of control | [8] 97 % of control | [3] 96 % of control | [9] 97 % of control

Cc1ccc(CNc2cccnc2)cc1
inactive: [7] 98 % of control | [8] 93 % of control | [9] 95 % of control

CN1C2CCC1C(CCl)C(O)C2 (stereo not drawn)
inactive: endpoint: mean survival time, dose: 50.0 mg/kg/injection, schedule: Q01DX009 (ip), vehicle: saline 97 % of control | endpoint: mean survival time, dose: 100.0 mg/kg/injection, schedule: Q01DX009 (ip), vehicle: saline 104 % of control | endpoint: mean survival time, dose: 200.0 mg/kg/injection, schedule: Q01DX009 (ip), vehicle: saline 101 % of control

CNc1nc2cc(C)c(C)cc2n1C1OC(CO)C(O)C1O (stereo not drawn)
inactive: endpoint: mean survival time, dose: 75.0 mg/kg/injection, schedule: Q01DX001 (ip), vehicle: saline 111 % of control | endpoint: mean survival time, dose: 150.0 mg/kg/injection, schedule: Q01DX001 (ip), vehicle: saline 103 % of control | endpoint: mean survival time, dose: 300.0 mg/kg/injection, schedule: Q01DX001 (ip), vehicle: saline 108 % of control

COc1cc(C(=O)NNC(=O)c2ccc(Cl)cc2)cc(OC)c1OC
inactive: [1] 94 % of control | [2] 86 % of control

Cc1cccc2c1CCC(OC(=O)c1cc([N+](=O)[O-])cc([N+](=O)[O-])c1)C2 (stereo not drawn)
inactive: [1] 92 % of control | endpoint: mean survival time, dose: 100.0 mg/kg/injection, schedule: Q04DX003 (ip), vehicle: acetone 98 % of control | endpoint: mean survival time, dose: 200.0 mg/kg/injection, schedule: Q04DX003 (ip), vehicle: acetone 108 % of control | [8] 89 % of control | [3] 97 % of control | endpoint: mean survival time, dose: 400.0 mg/kg/injection, schedule: Q04DX003 (ip), vehicle: acetone 101 % of control

CCCCCCC(C)=O
inactive: [7] 98 % of control | [8] 96 % of control | [9] 91 % of control

O=C(Nc1cccc(O)c1)OCCCCl
inactive: [7] 98 % of control | [8] 98 % of control | [9] 96 % of control

O=C(OCC1OC(n2cc[n+]([O-])nc2=O)C(OC(=O)c2ccccc2)C1OC(=O)c1ccccc1)c1ccccc1 (stereo not drawn)
inactive: endpoint: mean survival time, dose: 25.0 mg/kg/injection, schedule: Q01DX005 (ip), vehicle: other 90 % of control | endpoint: mean survival time, dose: 50.0 mg/kg/injection, schedule: Q01DX005 (ip), vehicle: other 101 % of control | endpoint: mean survival time, dose: 100.0 mg/kg/injection, schedule: Q01DX005 (ip), vehicle: other 104 % of control | endpoint: mean survival time, dose: 200.0 mg/kg/injection, schedule: Q01DX005 (ip), vehicle: other 122 % of control | endpoint: mean survival time, dose: 400.0 mg/kg/injection, schedule: Q01DX005 (ip), vehicle: other 113 % of control

CCC(=O)c1ccc(NC(=O)Nc2ncccn2)cc1
inactive: endpoint: mean survival time, dose: 50.0 mg/kg/injection, schedule: Q01DX009 (ip), vehicle: Klucel (hydroxypropylcellulose) (HPC) 91 % of control | endpoint: mean survival time, dose: 100.0 mg/kg/injection, schedule: Q01DX009 (ip), vehicle: Klucel (hydroxypropylcellulose) (HPC) 94 % of control

CC(C(O)c1ccc(Br)cc1)C(O)(C(F)(F)F)C(F)(F)F (stereo not drawn)
inactive: endpoint: mean survival time, dose: 100.0 mg/kg/injection, schedule: Q04DX003 (ip), vehicle: other 113 % of control | endpoint: mean survival time, dose: 200.0 mg/kg/injection, schedule: Q04DX003 (ip), vehicle: other 107 % of control | endpoint: mean survival time, dose: 400.0 mg/kg/injection, schedule: Q04DX003 (ip), vehicle: other 100 % of control

CS(=O)(=O)c1ccccn1
inactive: [4] 100 % of control | [5] 97 % of control | [6] 100 % of control

Nc1nc2c(ncn2-c2cccc(NC(=O)c3cc(S(=O)(=O)F)ccc3Cl)c2)c(=O)[nH]1
inactive: endpoint: mean survival time, dose: 100.0 mg/kg/injection, schedule: Q01DX001 (ip), vehicle: saline with Tween-80 88 % of control | endpoint: mean survival time, dose: 200.0 mg/kg/injection, schedule: Q01DX001 (ip), vehicle: saline with Tween-80 94 % of control | endpoint: mean survival time, dose: 400.0 mg/kg/injection, schedule: Q01DX001 (ip), vehicle: saline with Tween-80 94 % of control

ClC1=C(Cl)C2(Cl)C3C4CCC(C4)C3C1(Cl)C2(Cl)Cl (stereo not drawn)
inactive: [1] 95 % of control and 107 % of control | [2] 93 % of control and 111 % of control | [3] 96 % of control and 105 % of control

N=c1ccn2c(n1)OC1C(O)C(CO)OC12 (stereo not drawn)
active: endpoint: mean survival time, dose: 37.5 mg/kg/injection, schedule: Q01DX005 (ip), vehicle: saline 151 % of control | endpoint: mean survival time, dose: 53.0 mg/kg/injection, schedule: Q01DX009 (ip), vehicle: saline 246 % of control | endpoint: mean survival time, dose: 75.0 mg/kg/injection, schedule: Q01DX005 (ip), vehicle: saline 152 % of control and 173 % of control | endpoint: mean survival time, dose: 79.0 mg/kg/injection, schedule: Q01DX009 (ip), vehicle: saline 247 % of control | endpoint: mean survival time, dose: 100.0 mg/kg/injection, schedule: Q04DX002 (ip), vehicle: saline with Tween-80 151 % of control | endpoint: mean survival time, dose: 119.0 mg/kg/injection, schedule: Q01DX009 (ip), vehicle: saline 331 % of control | endpoint: mean survival time, dose: 150.0 mg/kg/injection, schedule: Q01DX005 (ip), vehicle: saline 160 % of control and 171 % of control | endpoint: mean survival time, dose: 178.0 mg/kg/injection, schedule: Q01DX009 (ip), vehicle: saline 341 % of control | endpoint: mean survival time, dose: 200.0 mg/kg/injection, schedule: Q04DX002 (ip), vehicle: saline with Tween-80 158 % of control | endpoint: mean survival time, dose: 300.0 mg/kg/injection, schedule: Q01DX005 (ip), vehicle: saline 205 % of control and 221 % of control | endpoint: mean survival time, dose: 400.0 mg/kg/injection, schedule: Q04DX002 (ip), vehicle: saline with Tween-80 205 % of control | endpoint: mean survival time, dose: 600.0 mg/kg/injection, schedule: Q01DX005 (ip), vehicle: saline 271 % of control and 274 % of control | endpoint: median survival time, dose: 200.0 mg/kg/injection, schedule: Q01DX009 (ip), vehicle: water 375 % of control
inactive: endpoint: median survival time, dose: 500.0 mg/kg/injection, schedule: Q01DX009 (ip), vehicle: water 93 % of control | endpoint: median survival time, dose: 600.0 mg/kg/injection, schedule: Q01DX009 (ip), vehicle: water 105 % of control

COc1cccc2c1C(=O)c1c(O)c3c(c(O)c1C2=O)C[C@@](O)(/C(C)=N\O)C[C@@H]3OC1CC(N)C(O)C(C)O1 (stereo partly drawn)
inactive: endpoint: mean survival time, dose: 3.13 mg/kg/injection, schedule: Q01DX009 (ip), vehicle: water 108 % of control | endpoint: mean survival time, dose: 6.25 mg/kg/injection, schedule: Q01DX009 (ip), vehicle: water 112 % of control | endpoint: mean survival time, dose: 25.0 mg/kg/injection, schedule: Q01DX009 (ip), vehicle: water 98 % of control
